# Measured values: patent US9440989B2, “Antifibrinolytic compounds” (PROYECTO DE BIOMEDICINA CIMA, S.L., priority 2012, dated 2016)
# Where two headings read alike, the source gives them in different places. Marks after values point to notes of the source that are not given here.
# Assays:
# [1] = system: human blood (whole blood clot lysis, tPA); test: Thromboelastometry (ROTEM, modified in-tem with tPA): whole blood clot formation and lysis, human blood; settings: read-out: EC50LT (effective concentration to delay lysis time by 50%)
# Experimental: A modification of in-tem test as described below was used for the examination of antifibrinolytic effects of tested compounds and its interaction with platelets in citrated blood.
# In a pre-warmed cuvette and holder 1 μL of Tissue plasminogen activator (tPA) (150,000 U/mL, Actylise), 20 μL of start-tem reagent (CaCl2), 20 μL of in-tem reagent (activators of coagulation system), 3 μL of DMSO (control) or tested compounds (CMs) in DMSO and 300 μL of citrated blood pre-warmed were pipetted. The cup holder containing the sample mixture was placed immediately on the appropriate channel. The measurement was recorded for 60 min to allow clot formation and lysis.
# [2] = system: tail bleeding in wild-type C57B16 mice; test: Tail bleeding assay, traditional bleeding model; format: in vivo; settings: intraperitoneal 4 mg/mouse, 160 mg/Kg, tail tip removed 30 min after injection, n = 10
# Experimental: (§1) Bleeding time was evaluated in 2 months old wild-type C57B16 (n=10) mice by removing the tail tip. Mice (20-25 g) were anaesthetized with 2.5% isoflurane and maintained at 37° C. on heating pads. The hemostatic efficacy was evaluated in 2 models, traditional bleeding model and hyperfibrinolytic bleeding model.
# Traditional bleeding model consisted in intraperitoneal injection of different compounds (4 mg/mouse, 160 mg/Kg) dissolved in 2% carboxymethyl cellulose or vehicle. Thirty minutes after injection, 5 mm of tail tip were removed using a scalpel blade and the tail tip bathed in 1 mL of sterile saline at 37° C. The time to cessation of bleeding was measured up to 30 min. The time of bleeding was defined as the interval between initial transection and the visual cessation of bleeding.
# [3] = system: mice blood (whole blood clot lysis, tPA); test: Thromboelastometry (ROTEM, modified in-tem with tPA): whole blood clot formation and lysis, mice blood; format: cell-based; settings: Mus musculus, read-out: EC50LT (effective concentration to delay lysis time by 50%), assayed concentrations 1000-0.2 μM
# [4] = system: tPA-prolonged tail bleeding in wild type mice (C57/Bl6); test: Tail bleeding assay, hyperfibrinolytic bleeding model (tPA 0.5 mg/kg); format: in vivo; settings: n≧10
# Experimental: as §1
# Hyperfibrinolytic bleeding model, consisted in injection of 0.5 mg/kg tPA into the ocular plexus to prolong bleeding time due to excessive fibrinolysis. […] The catheter was connected to a syringe pump (AL-1000, WPI) for the infusion of 200 μL (10% bolus, 90% perfusion during 40 minutes) of tested agents. Then, tPA (0.5 mg/kg) was injected into the ocular plexus and five minutes after tPA administration, saline or the different compounds was infused through the femoral catheter to ensure systemic distribution of all the agents. Reference compounds, TXA and Aprotinin, were administered at 300 and 10 mg/Kg respectively; however, all compounds of the invention were administered at 1 mg/Kg. Five minutes later, 5 mm of tail tip were removed using a scalpel blade and the tail tip bathed in 1 mL of sterile saline at 37° C.
# The time of bleeding was defined as the interval between initial transections and the visual cessation of bleeding, that was measured up to 30 minutes. A value of 30 min was assigned to those animals bleeding longer than the observation period. […] Bleeding time was determined in wild type mice (C57/Bl6), where n≧10 per assayed compound; therefore, BT is reported as a mean value—in the case of saline, BT is reported as mean±ESM.
# [5] = 1 mg/Kg infused via femoral vein
# [6] = human blood, tPA, assayed concentrations 1000-0.2 μM
EC50 ([1]; Homo sapiens) [nM],Compound,further results
< 1000,O=C(O)c1ccc(Oc2ccc(S(=O)(=O)C3(C(=O)NO)CCC4(CCNCC4)C3)cc2)cc1 (centres unmarked) [Example 1-07],"EC50 [3]: < 1 nM; BT (bleeding time, mean) [4, 5]: ++* (10 minutes≦BT<20 minutes (++))"
< 1000,CNC(=O)c1ccc(Oc2ccc(S(=O)(=O)C3(C(=O)NO)CCC4(CCNCC4)C3)cc2)cc1 (centres unmarked) [Example 1-08],"EC50 [3]: 1 to 1000 nM; BT (bleeding time, mean) [4, 5]: ++++**†† (BT<5 minutes (++++))"
< 1000,O=C(NO)C1(S(=O)(=O)c2ccc(Oc3ccc(OC(F)(F)F)cc3)cc2)CCC2(CCNCC2)C1 (centres unmarked) [Example 1-73],"EC50 [3]: 1000 to 10000 nM; BT (bleeding time, mean) [4, 5]: ++++**†† (BT<5 minutes (++++))"
< 1000,O=C(NO)C1(S(=O)(=O)c2ccc(OCc3ccncc3)cc2)CCC2(CCNCC2)C1 (centres unmarked) [Example 1-100],–
1000 to 10000,CNC(=O)c1ccc(C(=O)Oc2ccc(S(=O)(=O)C3(C(=O)NO)CCC4(CCNCC4)C3)cc2)cc1F (centres unmarked) [Example 1-101],–
> 25000,O=C(Oc1ccc(S(=O)(=O)C2(C(=O)NO)CCC3(CCNCC3)C2)cc1)c1ccc(OC(F)(F)F)cc1 (centres unmarked) [Example 1-102],"BT (bleeding time, mean) [4, 5]: ++* (10 minutes≦BT<20 minutes (++))"
< 1000,CNC(=O)c1ccc(CNc2ccc(S(=O)(=O)C3(C(=O)NO)CCC4(CCNCC4)C3)cc2)cc1 (centres unmarked) [Example 1-104],–
> 25000,COC(=O)c1ccc(CNc2ccc(S(=O)(=O)C3(C(=O)NO)CCC4(CCNCC4)C3)cc2)cc1 (centres unmarked) [Example 1-105],–
< 1000,O=C(O)c1ccc(CNc2ccc(S(=O)(=O)C3(C(=O)NO)CCC4(CCNCC4)C3)cc2)cc1 (centres unmarked) [Example 1-106],–
< 1000,O=C(NO)C1(S(=O)(=O)c2ccc(Oc3cccc(OC(F)(F)F)c3)cc2)CCC2(CCNCC2)C1 (centres unmarked) [Example 1-115],–
< 1000,COc1ccc(C(=O)Oc2cccc(S(=O)(=O)C3(C(=O)NO)CCC4(CCNCC4)C3)c2)cc1 (centres unmarked) [Example 1-119],–
> 25000,O=C(Oc1cccc(S(=O)(=O)C2(C(=O)NO)CCC3(CCNCC3)C2)c1)c1ccc(OC(F)(F)F)cc1 (centres unmarked) [Example 1-120],–
< 1000,O=C(NO)C1(S(=O)(=O)c2cccc(Oc3ccc(OC(F)(F)F)cc3)c2)CCC2(CCNCC2)C1 (centres unmarked) [Example 1-123],–
> 25000,CNC(=O)c1ccc(Oc2cccc(S(=O)(=O)C3(C(=O)NO)CCC4(CCNCC4)C3)c2)cc1 (centres unmarked) [Example 1-126],–
< 1000,O=C(O)c1ccc(Oc2cccc(S(=O)(=O)C3(C(=O)NO)CCC4(CCNCC4)C3)c2)cc1 (centres unmarked) [Example 1-127],–
> 25000,"O=C(Oc1ccc(S(=O)(=O)C2(C(=O)NO)CCC3(CCNCC3)C2)cc1Cl)c1ccc(OC(F)(F)F)cc1 (centres unmarked) [Example 1-128, N-hydroxy-3-(3-chloro-4-(4-(trifluoromethoxy)Benzoyloxy)Phenylsulfonyl)-8-azaspiro[4.5]decane-3-carboxamide]",–
1000 to 10000,COc1ccc(C(=O)Oc2ccc(S(=O)(=O)C3(C(=O)NO)CCC4(CCNCC4)C3)cc2Cl)cc1 (centres unmarked) [Example 1-129],–
1000 to 10000,O=C(NO)C1(S(=O)(=O)c2cccc(OCc3ccc(OC(F)(F)F)cc3)c2)CCC2(CCNCC2)C1 (centres unmarked) [Example 1-130],–
< 1000,COc1ccc(S(=O)(=O)[C@]2(C(=O)NO)CCC3(CCNCC3)C2)cc1Cl [Example 1-131],–
< 1000,COc1ccc(S(=O)(=O)[C@@]2(C(=O)NO)CCC3(CCNCC3)C2)cc1Cl [Example 1-132],–

# Second part, the compound before the results:
Compound,EC50 ([1]; Homo sapiens) [nM],further results
COc1ccc(Oc2ccc(S(=O)(=O)C3(C(=O)NO)CCC4(CCCNC4)CC3)cc2)cc1 (centres unmarked) [Example 1-01],< 1000,Bleeding time [2]: 31.0 ± 3.6 s
COc1ccc(Oc2ccc(S(=O)(=O)C3(C(=O)NO)CCC4(CCCN(C)C4)CC3)cc2)cc1 (centres unmarked) [Example 1-02],10000 to 25000,Bleeding time [2]: 39.2 ± 4.7 s
O=C(NO)C1(S(=O)(=O)c2ccc(NC3CCCCC3)cc2)CCC2(CCNCC2)C1 (centres unmarked) [Example 1-14],< 1000,"EC50 [3]: 1 to 1000 nM; BT (bleeding time, mean) [4, 5]: ++++**†† (BT<5 minutes (++++))"
O=C(NO)C1(S(=O)(=O)c2ccccc2NC2CCCCC2)CCC2(CCNCC2)C1 (centres unmarked) [Example 1-79],< 1000,"BT (bleeding time, mean) [4, 5]: ++** (10 minutes≦BT<20 minutes (++))"
O=C(NO)C1(S(=O)(=O)c2ccc(NC3CCCCC3)c(Cl)c2)CCC2(CCNCC2)C1 (centres unmarked) [Example 1-80],< 1000,"BT (bleeding time, mean) [4, 5]: +++**† (5 minutes≦BT<10 minutes (+++))"
O=C(NO)C1(S(=O)(=O)c2ccc(NCC3CCCCC3)cc2)CCC2(CCNCC2)C1 (centres unmarked) [Example 1-82],< 1000,"BT (bleeding time, mean) [4, 5]: +++** (5 minutes≦BT<10 minutes (+++))"
O=C(NO)C1(S(=O)(=O)c2ccc(NC3CCOCC3)cc2)CCC2(CCNCC2)C1 (centres unmarked) [Example 1-96],< 1000,"BT (bleeding time, mean) [4, 5]: +++** (5 minutes≦BT<10 minutes (+++))"
O=C(NO)C1(S(=O)(=O)c2ccc(NC3CCCC3)cc2)CCC2(CCNCC2)C1 (centres unmarked) [Example 1-97],1000 to 10000,–
O=C(Oc1ccc(S(=O)(=O)C2(C(=O)NO)CCC3(CCNCC3)C2)cc1)C1CCCCC1 (centres unmarked) [Example 1-98],> 25000,–
COc1ccc(S(=O)(=O)C2(C(=O)NO)CCC3(CCNCC3)C2)cc1Cl (centres unmarked) [Example 1-107],< 1000,"BT (bleeding time, mean) [4, 5]: +++** (5 minutes≦BT<10 minutes (+++))"
O=C(NO)C1(S(=O)(=O)c2ccc(OCc3cn[nH]c3)cc2)CCC2(CCNCC2)C1 (centres unmarked) [Example 1-112],< 1000,"BT (bleeding time, mean) [4, 5]: +++** (5 minutes≦BT<10 minutes (+++))"
O=C(NO)C1(S(=O)(=O)c2ccc(Oc3ccc(OC(F)(F)F)c(Cl)c3)cc2)CCC2(CCNCC2)C1 (centres unmarked) [Example 1-114],10000 to 25000,–
"O=C(NO)C1(S(=O)(=O)c2ccc(F)c(Cl)c2)CCC2(CCNCC2)C1 (centres unmarked) [Example 1-116, N-hydroxy-3-(3-chloro-4-fluorophenylsulfonyl)-8-azaspiro[4.5]decane-3-carboxamide]",< 1000,–
O=C(NO)C1(S(=O)(=O)c2ccc(Oc3ccc(OC(F)(F)F)c(F)c3)cc2)CCC2(CCNCC2)C1 (centres unmarked) [Example 1-118],< 1000,–
O=C(NO)C1(S(=O)(=O)c2ccc(O)c(Cl)c2)CCC2(CCNCC2)C1 (centres unmarked) [Example 1-121],1000 to 10000,–
O=C(NO)C1(S(=O)(=O)c2ccc(OCc3ccccc3)c(Cl)c2)CCC2(CCNCC2)C1 (centres unmarked) [Example 1-122],> 25000,–
O=C(NO)C1(S(=O)(=O)c2ccc(Oc3ccc(OC(F)(F)F)cc3)cc2)CCC2(CCN(C3CC3)CC2)C1 (centres unmarked) [Example 1-124],1000 to 10000,–
O=C(NO)C1(S(=O)(=O)c2ccc(NCC3CCC(F)(F)CC3)cc2)CCC2(CCNCC2)C1 (centres unmarked) [Example 1-125],< 1000,–
CNC(=O)c1ccc(Oc2ccc(S(=O)(=O)C3(C(=O)NO)CCC4(CCNCC4)C3)cc2)cc1 (centres unmarked) [Example 1-133],–,"EC50 [1, 6]: < 1000 nM"
CNC(=O)c1ccc(Oc2ccc(S(=O)(=O)C3(C(=O)NO)CCC4(CCNCC4)C3)cc2)cc1 (centres unmarked) [Example 1-134],–,"EC50 [1, 6]: < 1000 nM"
O=C(NO)C1(S(=O)(=O)c2ccccc2NC2CCCCC2)CCC2(CCNCC2)C1 (centres unmarked) [Example 1-138],–,"EC50 [1, 6]: < 1000 nM"
"NC[C@H]1CC[C@H](C(=O)O)CC1 [TXA, tranexamic acid, reference compound]",1000 to 10000,"EC50 [3]: 1 to 1000 nM; BT (bleeding time, mean) ([4]; 300 mg/Kg infused via femoral vein): ++** (10 minutes≦BT<20 minutes (++))"
Aprotinin [reference compound],–,"BT (bleeding time, mean) ([4]; 10 mg/Kg infused via femoral vein): ++** (10 minutes≦BT<20 minutes (++))"
